Key:
Assay type in all cases: functional, cell-based
FaDu [1] = assay: Cytotoxic activity against human FADU bulk cells incubated for 72 hrs by Cell-titer-Glo luminescence assay
FaDu [2] = assay: Cytotoxic activity against human FADU cancer stem cells incubated for 72 hrs by Cell-titer-Glo luminescence assay
A549 [3] = assay: Cytotoxic activity against human A549 bulk cells incubated for 72 hrs by Cell-titer-Glo luminescence assay; details: A549, 72 h
ACHN = assay: Cytotoxic activity against human ACHN bulk cells incubated for 72 hrs by Cell-titer-Glo luminescence assay
A549 [4] = assay: Cytotoxic activity against human A549 cancer stem cells incubated for 72 hrs by Cell-titer-Glo luminescence assay; details: A549, 72 h

Row | SMILES | IC50 (FaDu [1]) | IC50 (FaDu [2]) | IC50 (A549 [3]) | IC50 (ACHN) | IC50 (A549 [4])
1 | CCN(CC)CCNC(=O)c1c(C)[nH]c(/C=C2\C(=O)Nc3ccc(-c4csc(-c5ccc(Br)cc5)n4)cc32)c1C | 3.68 µM | 1.33 µM |  |  | 
2 | CCN(CC)CCNC(=O)c1c(C)[nH]c(/C=C2\C(=O)Nc3ccc(-c4ccc(-c5cccnc5)s4)cc32)c1C | 14.3 µM | 40.8 µM |  |  | 
3 | COc1ccc(-c2ccc3c(c2)/C(=C/c2[nH]c(C)cc2C)C(=O)N3)nc1 |  |  | 0.07 µM |  | 
4 | CCN(CC)CCNC(=O)c1c(C)[nH]c(/C=C2\C(=O)Nc3ccc(-c4ccnn4-c4ccc(C#N)cc4)cc32)c1C | 17.3 µM | 4.96 µM |  |  | 
5 | O=C1Nc2ccc(-c3csc(-c4ccncc4)n3)cc2/C1=C/c1ccc(N2CCOCC2)cc1 | 17.5 µM |  |  |  | 
6 | Cc1cc(C)c(/C=C2\C(=O)Nc3cc(-c4cnc5ccnn5c4)ccc32)[nH]1 |  | 14.9 µM |  |  | 
7 | O=C1Nc2ccc(-c3csc(-c4ccccc4)n3)cc2/C1=C/c1[nH]c(C(=O)O)c2c1CCCC2 |  | 4.49 µM |  | 24.9 µM | 
8 | O=C1Nc2ccc(-c3csc(-c4ccncc4)n3)cc2/C1=C/c1ccc(N2CCNCC2)cc1 | 25.2 µM |  | 8.73 µM |  | 
9 | Cc1[nH]c(/C=C2\C(=O)Nc3ccc(-c4csc(C5CCNCC5)n4)cc32)c(C)c1C(=O)O |  | 5.62 µM |  |  | 
10 | CCN(CC)CCNC(=O)c1c(C)[nH]c(/C=C2\C(=O)Nc3ccc(-c4csc(-c5ccccn5)n4)cc32)c1C | 46.9 µM |  |  |  | 
11 | Cc1cc(C)c(/C=C2\C(=O)Nc3ccc(-c4cncnc4)cc32)[nH]1 |  |  | 20.8 µM | 12.8 µM | 
12 | Cc1[nH]c(/C=C2\C(=O)Nc3ccc(-c4cnn(-c5ccccn5)c4)cc32)c(C)c1C(=O)N1CCOCC1 |  | 8.94 µM |  |  | 
13 | COc1cccnc1-c1ccc2c(c1)/C(=C/c1[nH]c(C)cc1C)C(=O)N2 | 33.2 µM |  |  |  | 
14 | CCN(CC)CCNC(=O)c1c(C)[nH]c(/C=C2\C(=O)Nc3ccc(C4CCN(C5CCN(C(C)=O)CC5)CC4)cc32)c1C | 3.32 µM | 1 µM | 29.6 µM | 4.8 µM | 
15 | Cc1cc(C)c(/C=C2\C(=O)Nc3ccc(-c4csc(-c5ccccc5)n4)cc32)[nH]1 | 7.87 µM | 6.49 µM |  | 5.31 µM | 
16 | CCN(CC)CCNC(=O)c1c(C)[nH]c(/C=C2\C(=O)Nc3ccc(C4CCN(c5ccccc5)CC4)cc32)c1C | 1.89 µM | 1.3 µM | 16 µM |  | 
17 | Cc1cc(C)c(/C=C2\C(=O)Nc3ccc(-c4nccc5ccccc45)cc32)[nH]1 | 23.5 µM |  | 18.4 µM |  | 
18 | CCN(CC)CCNC(=O)c1c(C)[nH]c(/C=C2\C(=O)Nc3ccc(-c4cnc(-c5ccccc5)s4)cc32)c1C | 23.7 µM |  |  |  | 
19 | CCOC(=O)c1c(C)[nH]c(/C=C2\C(=O)Nc3ccc(-c4csc(-c5ccccc5)n4)cc32)c1C |  | 20.2 µM |  |  | 
20 | O=C1Nc2ccc(-c3csc(-c4ccncc4)n3)cc2/C1=C/c1cc2ccccc2[nH]1 |  | 3.07 µM |  |  | 
21 | O=C1Nc2ccc(-c3csc(-c4ccccc4)n3)cc2/C1=C/c1ccc(C(=O)NCCN2CCOCC2)c(=O)[nH]1 |  | 33.7 µM |  |  | 
22 | CCN(CC)CCNC(=O)c1c(C)[nH]c(/C=C2\C(=O)Nc3ncc(-c4csc(-c5ccccc5)n4)cc32)c1C |  | 1.6 µM |  |  | 
23 | CCN(CC)CCN1CCCc2[nH]c(/C=C3\C(=O)Nc4ccc(-c5csc(-c6ccccc6)n5)cc43)c(C)c2C1=O | 5.31 µM |  | 18 µM |  | 

Row | SMILES | IC50 (FaDu [1]) | IC50 (FaDu [2]) | IC50 (A549 [3]) | IC50 (ACHN) | IC50 (A549 [4])
24 | Cc1[nH]c(/C=C2\C(=O)Nc3ccc(-c4csc(-c5ccncc5)n4)cc32)c(C)c1CCC(=O)O |  |  |  | 14.6 µM | 
25 | Cc1[nH]c(/C=C2\C(=O)Nc3ccc(-c4ccnn4-c4ccccc4)cc32)c(C)c1C(=O)N1CCN(C)CC1 | 4.55 µM | 11.5 µM |  |  | 
26 | Cc1cc(C)c(/C=C2\C(=O)Nc3ccc(-c4cnc5ccccc5n4)cc32)[nH]1 | 25.8 µM | 0.09 µM | 7.89 µM | 10.6 µM | 
27 | CCN(CC)CCNC(=O)c1c(C)[nH]c(/C=C2\C(=O)Nc3ccc(-c4nnc(-c5ccccc5)s4)cc32)c1C | 2.15 µM | 0.23 µM | 48.9 µM |  | 
28 | Cc1cc(C)c(/C=C2\C(=O)Nc3cc(-c4ccc(-c5ccccc5)nc4)ccc32)[nH]1 |  | 18.2 µM |  |  | 
29 | Cc1[nH]c(/C=C2\C(=O)Nc3ccc(-c4cnn(-c5ccccc5)c4C)cc32)c(C)c1C(=O)N1CCN(C)CC1 |  | 14.8 µM |  |  | 
30 | CCN(CC)CCNC(=O)c1c(C)[nH]c(/C=C2\C(=O)Nc3cc(-c4ccc5cc[nH]c(=O)c5c4)ccc32)c1C | 23.9 µM |  |  |  | 
31 | COC(=O)c1c(C)[nH]c(/C=C2\C(=O)Nc3ccc(-c4csc(-c5ccccc5)n4)cc32)c1C | 21.8 µM |  | 16.3 µM | 1.16 µM | 
32 | Cc1[nH]c(/C=C2\C(=O)Nc3ccc(-c4csc(-c5ccccc5)n4)cc32)c(C)c1CCC(=O)O |  |  |  |  | 1.65 µM
33 | Cc1[nH]c(/C=C2\C(=O)Nc3ccc(-c4cnn(-c5ccccc5)c4C)cc32)c(C)c1C(=O)N1CCOCC1 | 6.76 µM | 37.2 µM |  |  | 
34 | CCN(CC)CCNC(=O)c1c(C)[nH]c(/C=C2\C(=O)Nc3ccc(-n4cc(-c5ccccc5)nn4)cc32)c1C | 6.58 µM | 3 µM |  | 7.16 µM | 
35 | CCN(CC)CCNC(=O)c1[nH]c(/C=C2\C(=O)Nc3ccc(-c4csc(-c5ccccc5)n4)cc32)c2c1CCCC2 |  |  |  | 9.91 µM | 
36 | CCN(CC)CCNC(=O)c1c(C)[nH]c(/C=C2\C(=O)Nc3cnc(-c4csc(-c5ccccc5)n4)cc32)c1C | 11.2 µM | 4.75 µM |  |  | 
37 | O=C1Nc2ccc(-c3csc(-c4ccccc4)n3)cc2/C1=C/c1ccc(N2CCNCC2)cc1 | 2.59 µM |  | 5.79 µM |  | 
38 | Cc1cc(C)c(/C=C2\C(=O)Nc3cc(-c4ccc5ccccc5n4)ccc32)[nH]1 | 14 µM |  |  |  | 
39 | Cc1[nH]c(/C=C2\C(=O)Nc3ccc(-c4ccc(-c5ccccc5)s4)cc32)c(C)c1C(=O)NCCN1CCCC1 | 4.44 µM | 1.64 µM |  |  | 
40 | CCN(CC)CCNC(=O)c1c(C)[nH]c(/C=C2\C(=O)Nc3ccc(-c4nc(-c5ccccc5)n[nH]4)cc32)c1C | 6.16 µM | 2.8 µM |  |  | 
41 | CCN(CC)CCNC(=O)c1c(C)[nH]c(/C=C2\C(=O)Nc3ccc(-c4cnc(-c5ccccc5)[nH]4)cc32)c1C | 5.34 µM |  |  | 20.6 µM | 
42 | Cc1[nH]c(/C=C2\C(=O)Nc3ccc(-c4ccnn4-c4ccc(C#N)cc4)cc32)c(C)c1C(=O)N1CCN(C)CC1 |  | 48.2 µM |  |  | 
43 | CCN(CC)CCNC(=O)c1c(C)[nH]c(/C=C2\C(=O)Nc3ccc(-c4oc(-c5ccccc5)nc4C)cc32)c1C |  | 18.2 µM |  |  | 
44 | CCN(CC)CCNC(=O)c1c(C)[nH]c(/C=C2\C(=O)Nc3ccc(-c4cs/c(=N\c5ccccc5)n4C)cc32)c1C | 5.35 µM | 2.17 µM |  |  | 
45 | CN1CCN(C(=O)c2ccc(/C=C3\C(=O)Nc4ccc(-c5csc(-c6ccccc6)n5)cc43)[nH]c2=O)CC1 |  | 23.2 µM |  |  | 
46 | Cc1[nH]c(/C=C2\C(=O)Nc3ccc(-c4cnn(-c5ccccc5)c4C)cc32)c(C)c1C(=O)NCCN1CCCC1 | 5.79 µM | 1.31 µM |  |  | 

Row | SMILES | IC50 (FaDu [1]) | IC50 (FaDu [2]) | IC50 (A549 [3]) | IC50 (ACHN) | IC50 (A549 [4])
47 | CCN(CC)CCNC(=O)c1c(C)[nH]c(/C=C2\C(=O)Nc3ccc(-c4nnc(-c5ccccc5)o4)cc32)c1C | 8.23 µM | 21.5 µM |  |  | 
48 | Cc1[nH]c(/C=C2\C(=O)Nc3ccc(-c4cnc(-c5ccccc5)o4)cc32)c(C)c1C(=O)N1CCN(C)CC1 | 12.1 µM | 9.35 µM |  |  | 
49 | O=C1Nc2ccc(-c3csc(-c4ccccc4)n3)cc2/C1=C/c1ccc(N2CCOCC2)cc1 | 35.5 µM |  |  |  | 
50 | Cc1cc(C)c(/C=C2\C(=O)Nc3cc(-c4cnc5ccccn45)ccc32)[nH]1 | 19.4 µM |  |  | 20.6 µM | 
51 | Cc1cc(C)c(/C=C2\C(=O)Nc3cc(-c4ccncc4)ccc32)[nH]1 | 18.4 µM |  |  |  | 0.98 µM
52 | Cc1cc(C)c(/C=C2\C(=O)Nc3cc(-c4cccc(C#N)c4C)ccc32)[nH]1 |  | 39.1 µM |  |  | 
53 | CCN(CC)CCNC(=O)c1ccc(/C=C2\C(=O)Nc3ccc(-c4csc(-c5ccccc5)n4)cc32)[nH]c1=O | 3.1 µM | 6.15 µM | 3.64 µM | 3.31 µM | 
54 | CCN(CC)CCNC(=O)c1c(C)[nH]c(/C=C2\C(=O)Nc3ccc(-c4cn(-c5ccccc5)nn4)cc32)c1C | 6.74 µM | 2.9 µM | 4.88 µM | 4.73 µM | 
55 | Cc1[nH]c(/C=C2\C(=O)Nc3ncc(-c4csc(-c5ccccc5)n4)cc32)c(C)c1C(=O)N1CCN(C)CC1 | 39.2 µM |  |  |  | 
56 | Cc1cc(C)c(/C=C2\C(=O)Nc3ccc(-c4ccc5ccccc5n4)cc32)[nH]1 |  |  |  | 7.44 µM | 
57 | Cc1[nH]c(/C=C2\C(=O)Nc3ccc(-c4ncc(-c5ccccc5)o4)cc32)c(C)c1C(=O)N1CCN(C)CC1 |  | 2.38 µM |  |  | 
58 | CCN(CC)CCNC(=O)c1c(C)[nH]c(/C=C2\C(=O)Nc3ccc(C4CCN(C5CCOCC5)CC4)cc32)c1C | 23.9 µM |  |  |  | 
59 | CCN(CC)CCNC(=O)c1c(C)[nH]c(/C=C2\C(=O)Nc3ccc(C4CCN(c5ncccn5)CC4)cc32)c1C | 6.47 µM | 18.8 µM |  |  | 
60 | CCOC(=O)CCc1cccc(-c2nc(-c3ccc4c(c3)/C(=C/c3[nH]c(C)c(C(=O)NCCN(CC)CC)c3C)C(=O)N4)cs2)c1 |  | 2.34 µM |  |  | 
61 | CCN(CC)CCNC(=O)c1c(C)[nH]c(/C=C2\C(=O)Nc3ccc(-c4csc(-c5cccc(Br)c5)n4)cc32)c1C | 24.8 µM | 7.82 µM |  |  | 
62 | Cc1cc(C)c(/C=C2\C(=O)Nc3ccc(-c4nc5ccccc5s4)cc32)[nH]1 | 26.8 µM |  | 16.1 µM | 14.7 µM | 
63 | Cc1[nH]c(/C=C2\C(=O)Nc3ccc(-c4cnc(-c5ccccc5)[nH]4)cc32)c(C)c1C(=O)N1CCN(C)CC1 | 5.54 µM | 13.2 µM |  |  | 
64 | Cc1ccc(-c2nc(-c3ccc4c(c3)/C(=C/c3[nH]c(C)c(C(=O)N5CCOCC5)c3C)C(=O)N4)cs2)cc1 | 3.05 µM |  |  |  | 
65 | CC(=O)N1CCC(N2CCC(c3ccc4c(c3)/C(=C/c3[nH]c(C)c(C(=O)N5CCN(C)CC5)c3C)C(=O)N4)CC2)CC1 | 23.2 µM | 15.6 µM |  |  | 
66 | COc1ccc(-c2ccc3c(c2)/C(=C/c2[nH]c(C)cc2C)C(=O)N3)c(C)c1 | 19.8 µM |  |  | 24.8 µM | 
67 | CCN(CC)CCNC(=O)c1c(C)[nH]c(/C=C2\C(=O)Nc3ccc(-c4cnc(-c5ccccc5)o4)cc32)c1C | 9.73 µM | 41.5 µM |  | 12.2 µM | 
68 | Cc1cc(C)c(/C=C2\C(=O)Nc3ccc(-c4ccc(C(=O)c5ccccc5)cc4)cc32)[nH]1 | 22.4 µM |  |  | 21.8 µM | 
69 | O=C1Nc2ccc(-c3csc(-c4ccccc4)n3)cc2/C1=C/c1cc2ccccc2[nH]1 | 49.3 µM |  |  |  | 
